Data: patent US20250230193A1, “CYCLIC COMPOUND HAVING SELECTIVE KRAS INHIBITORY EFFECT ON HRAS AND NRAS” (CHUGAI SEIYAKU KABUSHIKI KAISHA, priority 2022, published 2025)
Where a SMILES comes first, the peptide text is derived from it. Bridges are numbered along the chain shown (N, C = ends). [ ]: non-standard residue; d: D form. The star is where a group is joined. hPhe(3-Cl-4-CF3) = N[C@@H](CCc1ccc(C(F)(F)F)c(Cl)c1)C(=O)O; NPrPhe(4-CF3) = CCCN[C@@H](Cc1ccc(C(F)(F)F)cc1)C(=O)O; NMeGly(cPent) = CN[C@H](C(=O)O)C1CCCC1; NMeD = CN[C@@H](CC(=O)O)C(=O)O; NMeL = CN[C@@H](CC(C)C)C(=O)O; NMeAbu = CC[C@H](NC)C(=O)O; NMeS = CN[C@@H](CO)C(=O)O; Morpholide = C1CN(*)CCO1; NMeA = CN[C@@H](C)C(=O)O; Ac5c = NC1(C(=O)O)CCCC1; Ac4c = NC1(C(=O)O)CCC1; Sar = CNCC(=O)O

Key:
[1] = molecular target: GDP-bound HRAS wild-type protein (Homo sapiens, UniProt P01112); assay: Binding to HRAS by surface plasmon resonance (SPR), Single Cycle Kinetics; settings: KD ratio, GDP-bound HRAS wild-type vs GDP-bound KRAS wild-type, SPR
GDP-bound HRAS wild-type protein, sequence (P01112 whole entry): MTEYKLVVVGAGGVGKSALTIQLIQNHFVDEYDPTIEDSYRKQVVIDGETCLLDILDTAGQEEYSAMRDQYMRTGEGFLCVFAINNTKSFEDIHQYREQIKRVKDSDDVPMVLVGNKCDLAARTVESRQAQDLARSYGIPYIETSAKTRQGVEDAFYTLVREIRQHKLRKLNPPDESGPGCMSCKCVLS

[2] = molecular target: GDP-bound NRAS wild-type protein (Homo sapiens, UniProt P01111); assay: Binding to NRAS by surface plasmon resonance (SPR), Single Cycle Kinetics; settings: KD ratio, GDP-bound NRAS wild-type vs GDP-bound KRAS wild-type, SPR
GDP-bound NRAS wild-type protein, sequence (P01111 whole entry): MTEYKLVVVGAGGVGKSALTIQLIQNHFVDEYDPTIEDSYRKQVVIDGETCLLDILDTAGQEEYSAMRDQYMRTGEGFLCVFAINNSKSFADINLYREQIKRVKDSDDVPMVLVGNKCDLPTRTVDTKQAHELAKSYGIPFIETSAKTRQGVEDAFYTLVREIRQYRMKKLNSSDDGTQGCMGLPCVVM

SMILES	HRAS/KRAS (ratio of KD value for HRAS to KD value for KRAS) [1]	NRAS/KRAS (ratio of KD value for NRAS to KD value for KRAS) [2]
CC[C@H](C)[C@@H]1NC(=O)[C@H](CC(C)C)N(C)C(=O)C[C@@H](C(=O)N(C)CC)N(C)C(=O)[C@H](C2CCCC2)N(C)C(=O)C2(CCC2)NC(=O)[C@@H]2C[C@@H](C)CN2C(=O)[C@H](CCc2ccc(C(F)(F)F)c(OC)c2)NC(=O)CN(C)C(=O)[C@H](Cc2ccc(C)cc2)N2CC/C=C\C[C@@H](C2=O)N(C)C(=O)CN(C)C1=O [PP1907]	A (a compound having 10 or more and less than 20 is denoted as A)	AA (a compound having 20 or more is denoted as AA)
CCO[C@@H]1C[C@H]2C(=O)NC3(CCC3)C(=O)N(C)[C@@H](C3CCCC3)C(=O)N(C)[C@H](C(=O)N(C)CC)CC(=O)N(C)[C@@H](CC(C)C)C(=O)N[C@@H]([C@@H](C)CC)C(=O)N(C)CC(=O)N(C)[C@H]3C/C=C\CCN(C3=O)[C@@H](Cc3ccc(C)cc3)C(=O)N(C)CC(=O)N[C@@H](CCc3ccc(C(F)(F)F)c(OC)c3)C(=O)N2C1 [PP1910]	B (a compound having 3 or more and less than 10 is denoted as B)	A (a compound having 10 or more and less than 20 is denoted as A)
CC[C@H](C)[C@@H]1NC(=O)[C@H](CC(F)F)N(C)C(=O)C[C@@H](C(=O)N(C)CC)N(C)C(=O)[C@H](C2CCCC2)N(C)C(=O)C2(CC(C)(C)C2)NC(=O)[C@@H]2C[C@H](C)CN2C(=O)[C@H](CCc2ccc(C(F)(F)F)c(Cl)c2)NC(=O)CN(C)C(=O)[C@H](Cc2ccc(C)cc2)N2CC/C=C\C[C@@H](C2=O)N(C)C(=O)CN(C)C1=O [PP1911]	A (a compound having 10 or more and less than 20 is denoted as A)	A (a compound having 10 or more and less than 20 is denoted as A)
CCO[C@@H]1C[C@H]2C(=O)NC3(CC(C)(C)C3)C(=O)N(CC)[C@@H](C3CCCC3)C(=O)N(C)[C@H](C(=O)N(C)C)CC(=O)N(C)[C@@H](CC)C(=O)N[C@@H]([C@@H](C)CC)C(=O)N(C)CC(=O)N(C)[C@H]3C/C=C\CCN(C3=O)[C@@H](Cc3ccc(C(F)(F)F)cc3)C(=O)N(C)CC(=O)N[C@@H](CCc3cc(F)c(C(F)(F)F)c(F)c3)C(=O)N2C1 [PP1913]	A (a compound having 10 or more and less than 20 is denoted as A)	A (a compound having 10 or more and less than 20 is denoted as A)
CCO[C@@H]1C[C@H]2C(=O)NC3(CC(C)(C)C3)C(=O)N(C)[C@@H](C3CCCC3)C(=O)N(C)[C@H](C(=O)N(C)C)CC(=O)N3CCCCC[C@H]3C(=O)N[C@@H]([C@@H](C)CC)C(=O)N(C)CC(=O)N(C)[C@H]3C/C=C\CCN(C3=O)[C@@H](Cc3ccc(C(F)(F)F)cc3)C(=O)N(C)CC(=O)N[C@@H](CCc3cc(F)c(C(F)(F)F)c(F)c3)C(=O)N2C1 [PP1915]	A (a compound having 10 or more and less than 20 is denoted as A)	A (a compound having 10 or more and less than 20 is denoted as A)
CCCN1C(=O)CN(C)C(=O)CN(C)C(=O)[C@H]([C@@H](C)CC)NC(=O)[C@H](CC(C)C)N(C)C(=O)C[C@@H](C(=O)N2CCOCC2)N(C)C(=O)[C@H](C2CCCC2)N(C)C(=O)C2(CCC2)NC(=O)[C@H](C)N(C)C(=O)[C@H](CCc2ccc(C(F)(F)F)c(Cl)c2)NC(=O)CN(C)C(=O)[C@@H]1Cc1ccc(C(F)(F)F)cc1 [PP1916] ([NMeL]I[Sar][Sar][NPrPhe(4-CF3)][Sar][hPhe(3-Cl-4-CF3)][NMeA][Ac4c][NMeGly(cPent)][NMeD]-Morpholide; lactam N-11)	C (A compound having a KD ratio of 0.1 or more and less than 3 is denoted as C)	B (a compound having 3 or more and less than 10 is denoted as B)
CCCN(C)C(=O)[C@@H]1CC(=O)N(C)[C@@H](CC(C)C)C(=O)N[C@@H]([C@@H](C)OC)C(=O)N(C)CC(=O)N(C)[C@H]2C/C=C\CCN(C2=O)[C@@H](Cc2ccc(C(F)(F)F)cc2)C(=O)N(C)CC(=O)N[C@@H](CCc2cc(F)c(C(F)(F)F)c(F)c2)C(=O)N2C[C@H](OCC)C[C@H]2C(=O)NC2(CC(C)(C)C2)C(=O)N(C)[C@@H](C2CCCC2)C(=O)N1C [PP1917]	A (a compound having 10 or more and less than 20 is denoted as A)	A (a compound having 10 or more and less than 20 is denoted as A)
CCCN1C(=O)CN(C)C(=O)CN(C)C(=O)[C@H]([C@@H](C)CC)NC(=O)[C@H](CC(C)C)N(C)C(=O)C[C@@H](C(=O)N2CCOCC2)N(C)C(=O)[C@H](C2CCCC2)N(C)C(=O)C2(CCC2)NC(=O)[C@H](CC)N(C)C(=O)[C@H](CCc2ccc(C(F)(F)F)c(Cl)c2)NC(=O)CN(C)C(=O)[C@@H]1Cc1ccc(C(F)(F)F)cc1 [PP1918] ([NMeL]I[Sar][Sar][NPrPhe(4-CF3)][Sar][hPhe(3-Cl-4-CF3)][NMeAbu][Ac4c][NMeGly(cPent)][NMeD]-Morpholide; lactam N-11)	C (A compound having a KD ratio of 0.1 or more and less than 3 is denoted as C)	B (a compound having 3 or more and less than 10 is denoted as B)
CCO[C@@H]1C[C@H]2C(=O)NC3(CC(C)(C)C3)C(=O)N(C)[C@@H](C3CCCC3)C(=O)N(C)[C@H](C(=O)N(C)CC)CC(=O)N(C)[C@@H](CC(C)C)C(=O)N[C@@H]([C@@H](C)OCC)C(=O)N(C)CC(=O)N(C)[C@H]3C/C=C\CCN(C3=O)[C@@H](Cc3ccc(C(F)(F)F)cc3)C(=O)N(C)CC(=O)N[C@@H](CCc3cc(F)c(C(F)(F)F)c(F)c3)C(=O)N2C1 [PP1919]	A (a compound having 10 or more and less than 20 is denoted as A)	A (a compound having 10 or more and less than 20 is denoted as A)
CCCN1C(=O)CN(C)C(=O)CN(C)C(=O)[C@H]([C@@H](C)CC)NC(=O)[C@H](CC(C)C)N(C)C(=O)C[C@@H](C(=O)N2CCOCC2)N(C)C(=O)[C@H](C2CCCC2)N(C)C(=O)C2(CCCC2)NC(=O)[C@H](COC)N(C)C(=O)[C@H](CCc2ccc(C(F)(F)F)c(Cl)c2)NC(=O)CN(C)C(=O)[C@@H]1Cc1ccc(C(F)(F)F)cc1 [PP1920] ([NMeL]I[Sar][Sar][NPrPhe(4-CF3)][Sar][hPhe(3-Cl-4-CF3)][NMeS](Me)[Ac5c][NMeGly(cPent)][NMeD]-Morpholide; lactam N-11)	C (A compound having a KD ratio of 0.1 or more and less than 3 is denoted as C)	B (a compound having 3 or more and less than 10 is denoted as B)
CCCO[C@H](C)[C@@H]1NC(=O)[C@H](CC(C)C)N(C)C(=O)C[C@@H](C(=O)N(C)C)N(C)C(=O)[C@H](C2CCCC2)N(C)C(=O)C2(CC(C)(C)C2)NC(=O)[C@@H]2C[C@@H](OCC)CN2C(=O)[C@H](CCc2cc(F)c(C(F)(F)F)c(F)c2)NC(=O)CN(C)C(=O)[C@H](Cc2ccc(C(F)(F)F)cc2)N2CC/C=C\C[C@@H](C2=O)N(C)C(=O)CN(C)C1=O [PP1921]	A (a compound having 10 or more and less than 20 is denoted as A)	A (a compound having 10 or more and less than 20 is denoted as A)
